Consider three molecules from patent US20080267880A1, “AUTOMATED METHOD FOR HIGH THROUGHTOUT SCREENING OF NEMATODES” (priority 2002, published 2008).

Series [1] deals with wild-type worms (C. elegans N2). The format is in vivo, Caenorhabditis elegans. The method, then: Eggs were transferred to 24-well plates (Corning Inc., NY) containing 1 ml S-medium, without cholesterol, plus 1×10^8 cells/ml E. coli OP50, and grown at 25° C. All assays were performed on 3 day old egg-laying hermaphrodites. For worms treated with the superoxide/dismutase mimetic Euk-134 (Eukarion, Mass.) a single dose was added from a 5 mM stock (in Milli-Q water) on day one. At adulthood, 100 μL of culture media was removed from each well and replaced with 100 μL of paraquat stock solution (final concentration 40 mM). The cultures were then placed back at 25° C. and scored 48 h later for touch-provoked movement using a platinum wire. Immediately following the manual score, SYTOX green dye was added to each well to a final concentration of 1 μM.
We then examined the utility of SYTOX green dye as a score of death due to oxidative stress by incubating 3 day old gravid adult worms in the presence or absence of 40 mM paraquat for 48 hr. Death was first scored by the absence of touch provoked movement and 15 min later by the presence of SYTOX-associated fluorescence (FIG. 6A). […] Following the addition of […] SYTOX green dye and incubation for 15 min at room temperature, death was scored as the presence of fluorescence (FIG. 6A). The mean fraction alive (±SEM) as scored by SYTOX-associated fluorescence was 0.95±0.02 (n=69) in controls and 0.07±0.04 (n=157) in paraquat treated worms.
The utility of SYTOX dye was further tested in an experiment in which worms were cultured in the presence or absence of Euk-134 prior to paraquat exposure (FIG. 6B). […] The mean fraction alive (±SEM) scored by touch-provoked movement was 0.06±0.03 (n=47, 40 mM paraquat) and 0.78±0.11 (n 51, 40 mM paraquat+0.5 mM Euk134). The mean fraction alive (±SEM) scored using SYTOX dye was 0.13±0.00 (n=45, 40 mM paraquat) and 0.92±0.01 (n=51, 40 mM paraquat+0.5 mM Euk134). In each of these experiments the percentage of animals scored as alive using the SYTOX score was always slightly higher than the manual score.

The subject of series [2] is wild type C. elegans N2. Description: Microplate thermotolerance assay (35° C. heat shock, SYTOX fluorescence score of death). The format is in vivo, Caenorhabditis elegans. On the set-up: thermotolerance compared to untreated wild type worms: dose or concentration left out as unconfirmed. To be noted: heat shock 35° C. The method, then: Worms (˜10,000 to 20,000) were washed off NGM plates with 10 ml S-basal into a 15 ml tube. After gravity settling for 5 minutes, 9 ml S-basal was aspirated and replaced with fresh 9 ml S-basal. Following a further 2 washes the nematodes were introduced to the sample cup on the COPAS™ BIOSORT at a concentration of 1 worm per μl. Worms were dispensed, 1 animal per well, into either 96 well or 384 well microtitre plates according to the manufacturers instructions. For thermotolerance assays 384 well low volume plates (Greiner Bio-One Inc, Longwood, Fla.) were prepared with 20 μl S-medium containing SYTOX® at a final concentration of 1 μM. […]
The thermotolerance assay was performed in a Fluoroskan Ascent fluorometer (Thermo Labsystems, Finland). The ambient temperature of the fluorometer was set to 35° C. and Ascent software was configured to measure the fluorescence from each well every 30 minutes over a 20-24 hour period with a 20 millisecond measurement time for each well. At this setting a complete 384 well plate could be read within 30 seconds. The excitation wavelength for fluorescence was 485 nm and the emission wavelength 538 nm.
Analysis of individual fluorescence curves was performed using the Fluoroskan Ascent software. A 100% increase in fluorescence over baseline was used a cut-off to define a death event. […]

For series [3], the system named is wild type C. elegans N2. To be noted: Babar et al. (1999); cited from earlier work.
Setting [4] is: 40 mM paraquat+0.5 mM Euk134, 48 h.

Values joined by “and” are separate entries in the source; they are usually repeats but may differ in a detail not shown here. Equal values may be shown once.

`C[n+]1ccc(-c2cc[n+](C)cc2)cc1` [paraquat]: the “mean fraction alive (±SEM), SYTOX-associated fluorescence score” value in series [1] (40 mM paraquat alone, 48 h, 3 day old gravid adults, 15 min SYTOX) is 0.07±0.04 and 0.13±0.00.
Regarding `COc1cccc(C=NCCN=Cc2cccc(OC)c2[O-])c1[O-].[Cl-].[Mn+3]` [Euk-134], in series [1] (setting [4]), the “mean fraction alive (±SEM), scored by touch-provoked movement” value turned out to be 0.78±0.11 and the “mean fraction alive (±SEM), scored using SYTOX dye” value was 0.92±0.01.
On to `O=c1cc(N2CCOCC2)oc2c(-c3ccccc3)cccc12` [LY294002, 2-(4-Morpholinyl)-8-phenyl-4H-1-benzopyran-4-one], for which the “effect of the drug on thermotolerance” value with wild type C. elegans N2 [2] (100 nM LY294002) is given as “no significant effect”. In addition, the “thermotolerance compared to untreated wild type worms” value in the series with wild type C. elegans N2 [2] (grown from eggs to 4 day adults in S-medium at 20° C.) is recorded as “significantly more thermotolerant”. Also, the “thermotolerance of treated wild type worms (previously shown)” value with wild type C. elegans N2 [3] was “confers thermotolerance similar to that seen in age-1(hx546)”.
